Test results reported in patent US20240109917A1 (ACTELION PHARMACEUTICALS LTD, priority 2020, published 2024).
pIC50: −log10 of the molar value.

Tests used:
VEGFR2, unphosphorylated = VEGFR2, unphosphorylated (Homo sapiens (Human), UniProt P35968); experiment: VEGFR ADP GLO Assay; assay type: biochemical
[1] = target: His6-TEV-PDGFRβ (557-1016) (Homo sapiens (Human), UniProt P09619); experiment: PDGFRβ HTRF Assay; assay type: biochemical; settings: read-out: PDGFR HTRF IC50
Summary of the method: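 HTRF KinEASE-TK readout (665/620 nm ratio) of TK-biotin substrate phosphorylation by His-tagged PDGFRβ kinase domain. Enzyme and inhibitor preincubated 30 min, then ATP/substrate added for 3 h at room temperature before 60 min EDTA quench/detection.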

Sequence of VEGFR2, unphosphorylated (P35968 20-1356): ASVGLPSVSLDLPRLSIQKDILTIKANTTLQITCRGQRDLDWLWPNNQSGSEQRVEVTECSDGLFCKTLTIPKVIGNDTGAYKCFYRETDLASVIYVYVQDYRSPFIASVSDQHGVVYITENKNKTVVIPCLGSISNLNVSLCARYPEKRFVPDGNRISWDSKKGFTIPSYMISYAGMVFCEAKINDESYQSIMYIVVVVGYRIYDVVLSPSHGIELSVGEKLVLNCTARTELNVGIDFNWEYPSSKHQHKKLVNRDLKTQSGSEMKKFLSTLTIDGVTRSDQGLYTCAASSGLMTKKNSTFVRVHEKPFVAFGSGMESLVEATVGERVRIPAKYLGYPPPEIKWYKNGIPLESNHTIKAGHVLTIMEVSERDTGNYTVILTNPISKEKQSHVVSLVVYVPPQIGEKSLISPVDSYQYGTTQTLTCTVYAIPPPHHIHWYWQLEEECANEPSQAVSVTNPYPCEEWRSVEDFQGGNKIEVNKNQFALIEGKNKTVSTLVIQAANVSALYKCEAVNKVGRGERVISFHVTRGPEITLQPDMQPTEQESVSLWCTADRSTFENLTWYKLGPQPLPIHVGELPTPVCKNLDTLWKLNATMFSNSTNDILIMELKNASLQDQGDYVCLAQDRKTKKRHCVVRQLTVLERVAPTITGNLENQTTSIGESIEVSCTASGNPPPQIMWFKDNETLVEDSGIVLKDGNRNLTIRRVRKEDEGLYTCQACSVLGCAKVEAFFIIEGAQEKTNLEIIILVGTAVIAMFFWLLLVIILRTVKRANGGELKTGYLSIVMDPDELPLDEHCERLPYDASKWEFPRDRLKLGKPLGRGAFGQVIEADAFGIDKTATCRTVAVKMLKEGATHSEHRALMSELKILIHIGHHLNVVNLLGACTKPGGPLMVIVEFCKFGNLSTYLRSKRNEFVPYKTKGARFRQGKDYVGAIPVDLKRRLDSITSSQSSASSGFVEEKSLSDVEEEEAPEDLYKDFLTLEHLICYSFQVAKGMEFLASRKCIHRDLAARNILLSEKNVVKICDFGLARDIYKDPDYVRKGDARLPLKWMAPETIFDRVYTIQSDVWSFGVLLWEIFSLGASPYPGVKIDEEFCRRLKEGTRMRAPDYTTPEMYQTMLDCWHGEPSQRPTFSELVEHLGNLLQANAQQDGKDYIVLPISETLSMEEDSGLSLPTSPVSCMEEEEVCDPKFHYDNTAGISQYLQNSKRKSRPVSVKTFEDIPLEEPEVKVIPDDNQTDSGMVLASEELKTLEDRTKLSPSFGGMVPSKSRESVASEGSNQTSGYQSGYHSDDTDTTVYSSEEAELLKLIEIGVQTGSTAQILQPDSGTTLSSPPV
Sequence of His6-TEV-PDGFRβ (557-1016) (P09619 557-1016): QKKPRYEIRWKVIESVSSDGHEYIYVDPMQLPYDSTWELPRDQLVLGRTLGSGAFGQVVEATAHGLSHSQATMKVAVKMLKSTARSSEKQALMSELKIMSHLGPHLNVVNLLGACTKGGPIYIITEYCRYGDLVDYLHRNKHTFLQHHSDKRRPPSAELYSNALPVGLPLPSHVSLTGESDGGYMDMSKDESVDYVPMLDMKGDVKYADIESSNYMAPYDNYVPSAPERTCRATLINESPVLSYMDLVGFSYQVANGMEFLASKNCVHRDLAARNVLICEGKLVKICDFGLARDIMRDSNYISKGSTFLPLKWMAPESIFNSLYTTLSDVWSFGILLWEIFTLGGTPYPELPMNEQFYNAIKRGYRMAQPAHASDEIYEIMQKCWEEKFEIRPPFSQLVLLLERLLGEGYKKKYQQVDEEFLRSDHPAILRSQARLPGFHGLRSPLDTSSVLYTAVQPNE

Compound | pIC50 (VEGFR2, unphosphorylated) | pIC50 [1]
Cc1ncc(NC(=O)OCCN2CCCC2)cc1NC(=O)c1cnn2cc(-c3cnn(C)c3)sc12 [Example 246, 2-(pyrrolidin-1-yl)ethyl (6-methyl-5-(2-(1-methyl-1H-pyrazol-4-yl)pyrazolo[5,1-b]thiazole-7-carboxamido)pyridin-3-yl)carbamate] | < 5.12 | 8.85
Cc1ncc(C(=O)NC2CN(C(C)(C)C)C2)cc1NC(=O)c1cnn2cc(-c3cnn(C)c3)sc12 [Example 237, N-(5-((1-(tert-butyl)azetidin-3-yl)carbamoyl)-2-methylpyridin-3-yl)-2-(1-methyl-1H-pyrazol-4-yl)pyrazolo[5,1-b]thiazole-7-carboxamide] | < 5.12 | 8.85
Cc1ncc(C(=O)NCCN2CCCC23CCC3)cc1NC(=O)c1cnn2cc(-c3cnn(C)c3C)sc12 [Example 209, N-(5-((2-(5-azaspiro[3.4]octan-5-yl)ethyl)carbamoyl)-2-methyl-pyridin-3-yl)-2-(1,5-dimethyl-1H-pyrazol-4-yl)pyrazolo[5,1-b]thiazole-7-carboxamide] | < 5.12 | 9.52
Cc1cc(C(=O)NCCN2CCCC2(C)C)sc1NC(=O)c1cnn2cc(-c3ccc(N)nc3)sc12 [Example 184, 2-(6-aminopyridin-3-yl)-N-(5-((2-(2,2-dimethylpyrrolidin-1-yl)ethyl)carbamoyl)-3-methylthiophen-2-yl)pyrazolo[5,1-b]thiazole-7-carboxamide] | < 5.12 | 7.80
Cc1cc(C(=O)NCCN2CCCC2(C)C)sc1NC(=O)c1cnn2cc(-c3cnn(C)n3)sc12 [Example 186, N-(5-((2-(2,2-dimethylpyrrolidin-1-yl)ethyl)carbamoyl)-3-methylthiophen-2-yl)-2-(2-methyl-2H-1,2,3-triazol-4-yl)pyrazolo[5,1-b]thiazole-7-carboxamide] | < 5.12 | 7.38
Cc1ncc(C(=O)N2CC2CNC(C)(C)C)cc1NC(=O)c1cnn2cc(-c3cccc4c3cnn4C)sc12 (centres unmarked) [Example 239, N-(5-(2-((tert-butylamino)methyl)aziridine-1-carbonyl)-2-methylpyridin-3-yl)-2-(1-methyl-1H-indazol-4-yl)pyrazolo[5,1-b]thiazole-7-carboxamide] | < 5.60 | 8.30
COc1ncccc1-c1cn2ncc(C(=O)Nc3cc(C(=O)NCCN4CCC[C@H]4C)cnc3C)c2s1 [Example 242, (R)-2-(2-methoxypyridin-3-yl)-N-(2-methyl-5-((2-(2-methylpyrrolidin-1-yl)ethyl)carbamoyl)pyridin-3-yl)pyrazolo[5,1-b]thiazole-7-carboxamide] | < 5.12 | 9.70
Cc1ncc(NC(=O)OC[C@H]2CCCN2C)cc1NC(=O)c1cnn2cc(-c3cnn(C)c3)sc12 [Example 244, (R)-(1-methylpyrrolidin-2-yl)methyl (6-methyl-5-(2-(1-methyl-1H-pyrazol-4-yl)pyrazolo[5,1-b]thiazole-7-carboxamido)pyridin-3-yl)carbamate] | < 5.12 | 9.30
COc1ncccc1-c1cn2ncc(C(=O)Nc3cc(C(=O)NCCN4CCCC4C)cnc3C)c2s1 (centres unmarked) [Example 228, 2-(2-Methoxypyridin-3-yl)-N-(2-methyl-5-((2-(2-methylpyrrolidin-1-yl)ethyl)carbamoyl)pyridin-3-yl)pyrazolo[5,1-b]thiazole-7-carboxamide] | < 6.08 | 9.70
Cc1cc(C(=O)NCCN2CCCC2(C)C)sc1NC(=O)c1cnn2cc(-c3cnn(C)c3)sc12 [Example 182, N-(5-((2-(2,2-dimethylpyrrolidin-1-yl)ethyl)carbamoyl)-3-methylthiophen-2-yl)-2-(1-methyl-1H-pyrazol-4-yl)pyrazolo[5,1-b]thiazole-7-carboxamide] | < 5.12 | 7.62
COc1ncccc1-c1cn2ncc(C(=O)Nc3cc(NC(=O)OC[C@@H]4CCCN4C)cnc3C)c2s1 [Example 253, (S)-(1-methylpyrrolidin-2-yl)methyl (5-(2-(2-methoxypyridin-3-yl)pyrazolo[5,1-b]thiazole-7-carboxamido)-6-methylpyridin-3-yl)carbamate] | < 5.12 | 9.70
Cc1cc(C(=O)NCCN2CCC(O)CC2)sc1NC(=O)c1cnn2cc(-c3cnn(C)c3)sc12 [Example 191, N-(5-((2-(4-hydroxypiperidin-1-yl)ethyl)carbamoyl)-3-methylthiophen-2-yl)-2-(1-methyl-1H-pyrazol-4-yl)pyrazolo[5,1-b]thiazole-7-carboxamide] | < 5.12 | 6.60
Cc1cc(C(=O)NCCN2CCC(C)(C)C2)sc1NC(=O)c1cnn2cc(-c3cnn(C)c3)sc12 [Example 189, N-(5-((2-(3,3-dimethylpyrrolidin-1-yl)ethyl)carbamoyl)-3-methylthiophen-2-yl)-2-(1-methyl-1H-pyrazol-4-yl)pyrazolo[5,1-b]thiazole-7-carboxamide] | < 5.12 | 8.14
Cc1ncc(NC(=O)OC[C@@H]2CCCN2C(C)C)cc1NC(=O)c1cnn2cc(-c3cnn(C)c3)sc12 [Example 245, (S)-(1-isopropylpyrrolidin-2-yl)methyl (6-methyl-5-(2-(1-methyl-1H-pyrazol-4-yl)pyrazolo[5,1-b]thiazole-7-carboxamido)pyridin-3-yl)carbamate] | < 5.12 | 9.40
COc1ncccc1-c1cn2ncc(C(=O)Nc3cc(NC(=O)CN4CCCC4(C)C)cnc3C)c2s1 [Example 233, N-(5-(2-(2,2-dimethylpyrrolidin-1-yl)acetamido)-2-methylpyridin-3-yl)-2-(2-methoxypyridin-3-yl)pyrazolo[5,1-b]thiazole-7-carboxamide] | < 5.12 | 9.70
Cc1cc(C(=O)NCCN2CCC3(CCC3)CC2)sc1NC(=O)c1cnn2cc(-c3cnn(C)c3)sc12 [Example 203, N-(5-((2-(7-azaspiro[3.5]nonan-7-yl)ethyl)carbamoyl)-3-methylthiophen-2-yl)-2-(1-methyl-1H-pyrazol-4-yl)pyrazolo[5,1-b]thiazole-7-carboxamide] | < 5.12 | 7.60
